Assay results reported in US6369074B1, “Aminomethylene substituted non-aromatic heterocycles and use as substance P antagonists” (Pfizer Inc., priority 1992, dated 2002).
Counter-ions that a name gives are not always drawn.

| melting point | Structure (SMILES) |
| --- | --- |
| 217 °C (dec.) | COc1ccc(-n2c(C)ccc2C)cc1CN[C@H]1CCCN[C@H]1c1ccccc1 (as salt: hydrochloride) [Example 19, (2S,3S)-[5-(2,5-Dimethylpyrrol-1-yl)-2-methoxybenzyl]-(2-phenylpiperidin-3-yl) amine] |
| 240 to 244 °C | COc1ccc2c(C)c(C)sc2c1CN[C@H]1CCCN[C@H]1c1ccccc1.Cl.Cl.O (hydrate or solvate) |
